Results from patent publication US20250144187A1, “COMBINATION OF HYDROLASES AND ANTI-MICROORGANISM DRUGS AND USES THEREOF” (CENTRE FOR EYE AND VISION RESEARCH LIMITED, priority 2023, published 2025).
“And” between values parts separate entries of the source, which are not always exact repeats. Equal values may be shown once.

How the values were obtained:
MRSA [1] = assay: Check board broth micro-dilution assay, cefdinir with lysozyme; format: cell-based, Staphylococcus aureus; conditions: for effect of LTA/WTA synthesis inhibitor on cefdinir/lysozyme combination (FICI): inhibitor added into bacterial suspension
Method: 2) Check board broth micro-dilution assays. According to standard two-fold dilution method [Sun H et al., Nat Commun 11, 5263 (2020)], cefdinir at different concentration was added into fresh LB medium (or trypticase soy broth medium with 5% defibrinated horse blood) containing different concentration of human lysozyme in 96-wells plate. After well mixed, about 20 μl of 1.0×10^7 CFU/ml logarithmic cultures of MRSA, MRSE, Streptococcus pyogenes (S. py), Streptococcus mutans (S. mu), Enterococcus faecium (E. faecium), Enterococcus faecalis (E. faecalis) and Corynebacterium pseudodiphtheriticum (C. ps) were added into each well of the plate und co-incubated overnight, Wells without any drugs served as growth controls, and wells without bacteria served as background controls. The inhibition ratio was calculated as [1−(ODsample−ODbackground)/(ODcontrol−ODbackground)]×100%. Besides, bacterial growth inhibition was also monitored by serial dilution in LB-agar plate. CFU was counted by performing 10-fold serial dilution in PBS and then spotting 10 μl of dilutions in LB-agar plate. The MIC was determined as the lowest concentration of a drug that could inhibit the […] growth of microorganism by both visual CFU and OD600 using a microtiter plate reader. Fractional inhibitory concentration (FIC) and fractional inhibitory concentration index (FICI) values were determined by standard method. Briefly, FICI=MICAB/MICA+MICBA/MICB=FICA+FICB. […] Thus, there would be a series of FICI values. In most of Cases the lowest one among these values was listed to reflect the best achieving degree of combination therapy. In terms of the lowest FICI, FICI≤0.5, 0.5<FICI<1 or FICI≥1, would indicate the combination has synergy, part synergy or non-synergy effects, respectively.

ARPE-19 cells = assay: Toxicity analysis of auranofin by CCK-8 kit; format: cell-based, human; conditions: uninfected cells
Excerpt: FIG. 10: Toxicity analysis of auranofin on ARPE-19 cells by using CCK-8 kit.

MRSA [2] = assay: Resistance development study (serial passages), auranofin/lysozyme; format: cell-based, Staphylococcus aureus; conditions: combination with lysozyme compared with auranofin alone
Method: 4) Resistance development study. As described before [Y, Lau et al., (2020) Adv Sci 7:1902227]. MRSA at exponential phase was diluted (1:1000) into fresh LB medium containing different concentrations of auranofin, lysozyme or their combination. After 1 passage (24 hours) at 37° C., MIC of culture was determined by standard two-fold serial dilutions. Next, this culture with higher MIC was further diluted into similar LB medium but with higher concentrations of compounds for next passages. The process was repeated for 18 days. By analyzing initial MICs of auranofin or lysozyme, fold-changes in MI s of these compounds were calculated. Assays were performed in triplicate.

MRSA [3] = assay: TMT proteomics analysis and PRM validation, auranofin/lysozyme; conditions: auranofin + lysozyme combination vs lysozyme alone, 5 hours
MRSA biofilm = assay: Biofilm crystal violet assay, auranofin/lysozyme; format: cell-based, Staphylococcus aureus
Method: 3) Biofilm assays According to described previously method [K. R. V. Thappeta et al., (2020) ACS infect Dis 6: 1228-1237], biofilm inhibition was assessed by using an adherence assay on 96-well tissue culture plates. Briefly, bacterial suspensions (1×10^6 (CFU/ml) were exposed to 0.34 μg/ml auranofin in LB medium in the absence and presence of 0.5 mg/ml lysozyme. LB medium with or without bacteria served as […] control group, respectively. After overnight incubation at 37° C. bacterial suspensions were removed, and the wells were gently washed twice with sterile PBS to remove exclusively non-adherent bacteria. The adherent biofilms were fixed by using 95% methanol at 60° C. for 15 minutes. Then, biofilms were stained with 1% crystal violet (100 μl/well) at 37° C. for 15 minutes, followed by gently washing with PBS to remove redundant crystal violet. Finally, the dye was solubilized with 150 μl of 95% ethanol per well at 37° C. for 30 minutes. The optical density of solution in each well was measured at 590 nm using a micro-plate reader. Herein, strong biofilm, weak biofilm and no biofilm wen defined as “ODsample≥2 ODnegative control”, “ODnegative control<ODsample<2 ODnegative control” and “ODsample≤ODnegative control”, respectively. All assays were performed in triplicate.

MRSA [4] = assay: Time-killing curves, auranofin/lysozyme; format: cell-based, Staphylococcus aureus; conditions: for inhibition effect on growth of MRSA at exponential phase: drug alone: 0.34 μg/ml auranofin or 0.5 mg/ml lysozyme
Method: 2) Time-killing curves According to standard method [K. R. V. Thappeta et al., (2020) ACS Infect Dis 6: 1228-1237], over-night cultured MRSA was diluted and aliquoted into new sterile tubes at 1:1000 ratio. Then, the bacterial suspension was co-cultured with […] auranofin, 0.5 mg/ml lysozyme or their combination at 37° C. with shaking at 200 rpm. Similar bacterial suspension without any additions served as control group. Then, 20 μl of each culture was extracted at time intervals of […] and 22 hours to determine CFUs by spotting 10 μl of 10-fold dilution on the LB agar plates and incubating at 37° C. for 24 hours prior to enumeration. All assays were performed in triplicate.

MRSA in ARPE-19 cells = assay: Cell-based infection model, auranofin/lysozyme; conditions: ≥0.34 μg/ml auranofin combined with 0.5 mg/ml lysozyme
MRSA [5] = assay: Mutation frequency and prevention concentration analysis, auranofin/lysozyme; format: cell-based, Staphylococcus aureus
Excerpt: 5) Mutation frequency and prevention concentration analysis.

MRSA [6] = assay: ATP level, auranofin/lysozyme; format: cell-based, Staphylococcus aureus; conditions: 0.5 mg/ml lysozyme and 0.34 μg/ml auranofin
Method: 8) ATP level. […] Those without any treatment served as control group. Alter 1 hour incubation at 37° C. all bacteria were collected and washed by cold PBS for 3 times. […] Then, 20 μl of each supernatant were added white 96-well plate pre-reactivated by 100 μl of ATP test solution (Beyotime) to perform luminometer measurement.

[7] = test system: methicillin-resistant Staphylococcus aureus USA 300 (MRSA, ATCC-BAA1556); assay: Check board broth micro-dilution assay, auranofin with human lysozyme; format: cell-based
Method: Then, about 5.0×10^5 colony-forming units (CFUs) of methicillin-resistant Staphylococcus aures (MRSA, USA300 strain) in log phase were added into each well for overnight culture. Bacterial growth inhibition was monitored by optical density at 600 nm (OD600) and colony units in serial dilution in LB agar plate. Well without any drug served as growth control, and well without bacteria served as background control. The inhibition ratio was calculated as […]. CFUs were counted by 10-fold serial dilution in phosphate buffered saline (PBS) and 10 μl of dilutions were spotted in LB agar plate. […] Briefly, FICI=MICAB/MICA+MICBA/MICB=FICA+FICB. […] Thus, there would be a series of FICI values. In most of cases, the lowest one among these values was listed to reflect the best achieving degree of combination therapy. In terms of the lowest FICI, FICI≤0.5, 0.5<FICI<1 or FICI≥1, would indicate whether the combination has synergy, part synergy or non-synergy effects, respectively. Besides, to better highlight the inhibition degree of bacterial growth in combination therapy or identify whether combination therapy has synergy effect, results might be shown by heat-maps or line-charts containing different FICI values, although they were performed by using same 2-fold dilution method. All assays were performed in triplicate.

MRSA [8] = assay: Check board broth micro-dilution assay, tedizolid phosphate with lysozyme; format: cell-based, Staphylococcus aureus
Method: (§1) 2) Check board broth micro-dilution assays. According to standard two-fold dilution method [Sun. H et al., Nat. Commun. 11, 5263 (2020) tedizolid phosphate at different concentrations were added into fresh LB medium (or trypticase soy troth medium with 5% defibrinated horse blood) containing different concentrations of human lysozyme in 96-well plate. Then, 20 μl of 1.0×10^7 CFU/ml logarithmic cultures of MRSA or MRSE were added into each well of the plate and co-incubated overnight. Drug-free LB medium in the absence or presence of bacteria served as background control and growth control group, respectively. […] Thus, there would be a series of FICI values. In most of cases, the lowest one among these values was listed to reflect the best achieving degree of combination therapy. In terms of the lowest FICI, FICI≤0.5, 0.5<FICI<1 or FICI≥1, would indicate the combination has synergy, part synergy or non-synergy effects, respectively.

MRSE [9] = assay: Check board broth micro-dilution assay, cefdinir with lysozyme; format: cell-based, Staphylococcus epidermidis; conditions: lysozyme alone
Method: 2) Check board broth micro-dilution assays. According to standard two-fold dilution method [Sun H et al., Nat Commun 11, 5263 (2020)], cefdinir at different concentration was added into fresh LB medium (or trypticase soy broth medium with 5% defibrinated horse blood) containing different concentration of human lysozyme in 96-wells plate. After well mixed, about 20 μl of 1.0×10^7 CFU/ml logarithmic cultures of MRSA, MRSE, Streptococcus pyogenes (S. py), Streptococcus mutans (S. mu), Enterococcus faecium (E. faecium), Enterococcus faecalis (E. faecalis) and Corynebacterium pseudodiphtheriticum (C. ps) were added into each well of the plate und co-incubated overnight, Wells without any drugs served as growth controls, and wells without bacteria served as background controls. The inhibition ratio was calculated as [1−(ODsample−ODbackground)/(ODcontrol−ODbackground)]×100%. Besides, bacterial growth inhibition was also monitored by serial dilution in LB-agar plate. CFU was counted by performing 10-fold serial dilution in PBS and then spotting 10 μl of dilutions in LB-agar plate. The MIC was determined as the lowest concentration of a drug that could inhibit the […] growth of microorganism by both visual CFU and OD600 using a microtiter plate reader. Fractional inhibitory concentration (FIC) and fractional inhibitory concentration index (FICI) values were determined by standard method. […]

MRSE [10] = assay: Check board broth micro-dilution assay, tedizolid phosphate with lysozyme; format: cell-based, Staphylococcus epidermis; conditions: lysozyme alone
Method: as §1

Compound: CCN(CC)c1nc2c(S(=O)(=O)c3ccc(Cl)cc3)nnn2c2cc(OC)c(OC)cc12 [Targocil]
- effect of LTA/WTA synthesis inhibitor on cefdinir/lysozyme combination (FICI) (MRSA [1]): abolish the combination effect

Compound: CC(=O)OC[C@H]1O[C@@H]([S-])[C@H](OC(C)=O)[C@@H](OC(C)=O)[C@@H]1OC(C)=O.CCP(CC)CC.[Au+] [auranofin, Auranofin]
- IC50 of auranofin on ARPE-19 cells (ARPE-19 cells): 2.21±0.34 μg/ml
- development of auranofin resistance (MRSA [2]): did suppress the development of auranofin resistance
- CopZ over-expression (MRSA [3]): 21 fold
- N-acetylmuramoyl-L-alanine amidase domain (Q2G222) overexpression (MRSA [3]): ~1.84 fold
- protein level of walR (Q7A8E1) (MRSA [3]): ~0.68 fold
- biofilm-based absorbance at 590 nm, pre-biofilm stage (MRSA biofilm; 0.34 μg/ml auranofin + 0.5 mg/ml lysozyme): biofilm had been absolutely removed
- biofilm-based absorbance at 590 nm, post-biofilm stage (MRSA biofilm; auranofin + lysozyme combination after biofilm had appeared): the decrease was not observed after biofilm had appeared
- bacterial load (MRSA [4]; 0.34 μg/ml auranofin + 0.5 mg/ml lysozyme, reduced from the level of 10^10): 10^5 CFU/ml
- inhibition effect on growth of MRSA at exponential phase (MRSA [4]): few inhibitions effect
- drop of bacterial load in infected ARPE-19 cells (MRSA in ARPE-19 cells): 10^2 fold
- bacterial load in infected ARPE-19 cells (MRSA in ARPE-19 cells; MOI 5): 10^5 CFU/ml
- gene mutation frequency (MRSA [5]; 0.34 μg/ml auranofin + 2 mg/ml lysozyme): ≤ 1×10^−9
- gene mutation frequency (MRSA [5]; 0.34 μg/ml auranofin without lysozyme): ≥ 9×10^−6
- ATP level (MRSA [6]): significantly reduced
- fractional inhibitory concentration index (FICI) ([7]; auranofin in combination with lysozyme): 0.266

Compound: lysozyme: Human lysozyme (C-type) supplied by Sigma-Aldrich; hydrolase used in combination with the drugs
- inhibition effect on growth of MRSA at exponential phase (MRSA [4]): few inhibitions effect
- minimum inhibitory concentration (MIC) of human lysozyme (MRSA [8]; lysozyme alone): > 150 mg/mL
- reduction of the MIC value of lysozyme (MRSA [8]; with tedizolid phosphate at ca. 0.19 μg/ml): 1200 fold
- MIC value of lysozyme (MRSA [8]; with tedizolid phosphate at ca. 0.19 μg/ml (0.4 μM, 0.004 MIC)): 0.1235 mg/mL
- minimum inhibitory concentration (MIC) of human lysozyme (MRSE [9]): > 150 mg/mL
- minimum inhibitory concentration (MIC) of human lysozyme (MRSA [1]; lysozyme alone): > 150 mg/mL and 150 mg/mL
- drop of MIC value of lysozyme (MRSA [1]; with cefdinir at ca. 0.75 μg/ml): 1200 folds
- MIC value of lysozyme (MRSA [1]; with cefdinir at ca. 0.75 μg/ml (1.89 μM)): 0.125 mg/mL
- minimum inhibitory concentration (MIC) of human lysozyme (MRSE [10]): > 150 mg/mL
- lysozyme level to which MRSA is sensitive (MIC) ([7]; 0.17 μg/ml auranofin used in combination): 1.0 mg/mL
- lysozyme level to which MRSA is sensitive (MIC) ([7]; lysozyme alone): ≥ 150 mg/mL

Compound: O=C(COC(=O)Cc1coc2ccc3ccccc3c12)Nc1nnc(-c2ccccc2)o1 [LtaS-IN-1]
- effect of LTA/WTA synthesis inhibitor on cefdinir/lysozyme combination (FICI) (MRSA [1]): abolish the combination effect
